How the values were obtained:
mouse myoblasts = assay: Migration of mouse myoblasts transiently over-expressing MMPs; type: cell-based; conditions: NAC treatment, n=4
Method: Myoblast migration and invasion were examined using a commercially available in vitro cell migration and invasion assay kit (Biocoat, Becton Dickinson, Franklin Lakes, N.J.) as described by Albini et al. (A rapid in vitro assay for quantitating the invasive potential of tumor cells Cancer Res 47:3239-3245, 1987). Myoblasts were grown to approximately 70% confluence, rinsed three times in serum-free DMEM, followed by incubation for 3 hours in 0.2% bovine serum albumin (BSA) in DMEM to eliminate the effects of serum. Cells were then trypsinized and collected by centrifugation. Cells were resuspended in serum-free DMEM at a density of 1×10^5 cells/ml, and 0.5 ml aliquots of cell suspension were added to the top chamber. […] Fibronectin subfragments of 45 KDa (Sigma), 120 kDa (Gibco), 63 kDa (Retronectin, Takara) and 70 KDa (Sigma) were used alone or in combination. The growth factor concentrations used were those which could produce maximal effects as examined in the present studies by extending from values reported by Bischoff (“Chemotaxis of skeletal muscle satellite cells” Devel. Dynamics 208:505-515, 1997). […] The number of cells per field was counted in 10 randomly selected fields and averaged for each condition. […]

MMP-2 = assay: Gelatin zymography of human myoblasts, MMP-2; type: cell-based
Method: Gelatin zymography for assaying MMPs was carried out as previously described (Guerin and Holland “Synthesis and secretion of matrix-degrading metalloproteinases by human skeletal muscle satellite cells” Devel. Dynamics 202:91-99,1995) with minor modifications. Briefly, myoblasts were grown in 6 cm tissue culture plates to approximately 70% confluence, then rinsed three times with serumfree DMEM and incubated for 3 hours in DMEM containing 0.2% BSA to eliminate the effects of serum. Growth factors were added and cells were incubated for 24 hours. Culture medium was then collected, centrifuged to pellet detached cells, and concentrated ten-to twenty-fold using the Centricon-10 (Amicon, Beverly, Mass.) system. The protein concentration of the supernatants was determined using the Bio-Rad protein microassay system with BSA used as the standard. Samples were stored at −70° C. until use. For gelatin zymography, aliquots (10 μg as the total protein per sample) were electrophoresed at constant voltage on a 10% polyacrylamide gel containing 2 mg/ml gelatin. […] Proteinase activity was quantified by densitometric scanning of bands using a Bio-Rad Gel Doc 1000 video camera imaging system (Bio Rad, Hercules, Calif.). […]

Row | Compound | migration capability relative to non-NAC treated cells (mouse myoblasts; MMP-1 over-expressing myoblasts) [%] | migration capability relative to non-NAC treated cells (mouse myoblasts; MMP-2 over-expressing myoblasts) [%] | MMP-2 activation (MMP-2)
1 | CC(=O)N[C@@H](CS)C(=O)O [NAC, N-acetyl cysteine, reference compound] | 35 | 22 | –
2 | human serum fibronectin | – | – | significant increase in MMP-2 activation
